Test results reported in US20230108699A1, “HEART EXTRACELLULAR MATRIX-DERIVED SCAFFOLD FOR CULTURE AND TRANSPLANTATION OF CARDIAC ORGANOID AND METHOD OF PREPARING THE SAME” (CELLARTGEN INC., priority 2020, published 2023).

Tested on: human cardiac organoid cultured in the HEM hydrogel
Assay: Drug reactivity of HEM scaffold-based human cardiac organoid by calcium imaging
Format: cell-based
Settings: 7th day of culture, HEM hydrogel 4 mg/ml
Protocol: In order to check the reactivity of the human cardiac organoid cultured in the HEM hydrogel (4 mg/ml) to drugs, treatment with two representative drugs (isoproterenol and propranolol) affecting the heart rate was performed on the 7th day of culture, and reaction of the organoid thereto was checked through calcium imaging.

Compound | beating of cardiac organoid (isoproterenol 1 μM) | beating of cardiac organoid (propranolol 10 μM)
CC(C)NCC(O)c1ccc(O)c(O)c1 (centres unmarked) [isoproterenol] | increased | 
CC(C)NCC(O)COc1cccc2ccccc12 (centres unmarked) [propranolol] |  | decreased
